Laboratory results taken from article PMC6447718, “PACAP-38 and PACAP(6–38) Degranulate Rat Meningeal Mast Cells via the Orphan MrgB3-Receptor” (Frontiers in Cellular Neuroscience, 2019).
Entries after “also recorded” stand apart in the source; their conditions may differ. Like-named read-outs stand apart in the source and are kept apart here.

What was measured:
[1] = test system: rat peritoneal mast cells; details: ref Baun et al., 2012, cited from earlier work; for peritoneal mast cell degranulation (result in words): rat peritoneal mast cells
Excerpt: Inspired by clinical findings, we have previously characterized the degranulating effect of various PACAP-analogues on isolated rat peritoneal mast cells. Based on the expectation that degranulation is mediated through the PAC1-receptor, we found an unpredicted order of potency (Baun et al., [2012]).

rat meningeal mast cells = assay: Mast cell degranulation in hemi-skull preparations (dura mater, toluidine blue staining, microscopic count); format: cell-based, rat (male Sprague-Dawley); details: for degranulated meningeal mast cells in % of total number of mast cells: 30 s incubation, mean ± SEM; for mast cell degranulation: Figure 4A, PACAP-27 n = 6, maxadilan n = 5, mean ± SEM; for mast cell degranulation (result in words): 0.1 to 10 μM, rat meningeal mast cells
Description: Mast cell degranulation was performed as previously described (Pedersen et al., [2015]). In brief, skulls were cut mid-sagittal and the brain halves were removed, leaving the dura mater undisturbed. This was followed by immediate addition of either 350 μl 0.1, 1 or 10 μM PACAP-38 (custom synthesis by Caslo Laboratory ApS, Lyngby, Denmark) or vehicle (saline) in phosphate buffered saline (PBS). After 30 s incubation, the reactions were terminated, and the skulls were fixated in 4% paraformaldehyde in phosphate buffered saline (PBS; Glostrup Hospital Pharmacy, Denmark). The dura mater was dissected from the skull, whole mounted on slides, and mast cells were visualized by staining with 0.1% acidified toluidine blue (Sigma Aldrich, Germany). Tissues were dehydrated in graded alcohols prior to cover slip mounting. The level of mast cell degranulation was evaluated by 400× magnification (Nikon Eclipse Ni microscope) by a researcher blinded to the treatment and was counted in 10 consecutive fields along the stem part of the middle meningeal artery. Mast cells were considered degranulated if an extensive dispersion of more than 10 extruded granules were localized outside the cell or if an extensive loss of staining gave the cell a “ghostly” look.
(§1) Concentration-response curves for both oocytes and dural mast cells were analyzed for overall effects of PACAP-38 and -27 by two-way analyses of variance (ANOVA) followed by Sidak’s test for multiple pairwise comparisons. Effects of PAC1-receptor ligands on mast cell degranulation or on receptor-expressing oocytes were analyzed with a one-way ANOVA followed by Tukey’s multiple comparisons test. The effect of PACAP-38 and PACAP(6–38) on MrgB3-expressing oocytes were analyzed by an unpaired two-tailed t-test. Differences between groups were considered significant when p < 0.05 and data are presented as mean with standard error of the mean (±SEM). GraphPad Prism 7 (GraphPad Prism Software, San Diego, CA, USA) was used for statistical analysis.

[2] = test system: PAC1-receptor (Rattus Norvegicus Adcyap1r1 variant 5, null-splice variant); format: cell-based
Excerpt: (§2) DNA of the coding region of Rattus Norvegicus Adcyap1r1 variant 5 (NM_001270582.1) encoding the null-splice variant (short N-terminal and neither exon 14 or 15) of the PAC1-receptor (Vector: EX-Rn10199-M03) was ordered from GeneCopoeia. DNA encoding the RGD1560730 gene (XM_006229262.3, GenScript), was cloned into the pXOOM vector as previously described (Jespersen et al., [2002]). DNA was purified using Plasmid DNA Purification NucleoBond Xtra Midi-kit (Macherey-Nagel). […] Extracted plasmids were linearized down-stream the poly(A) segment using the XhoI restriction enzyme (New England Biolabs, Ipswich, MA, USA). RNA was in vitro transcribed by synthetization from the T7 RNA polymerase promoter using the mMessenger mMachine kit (Ambion) according to manufacturer’s protocol. Messenger RNA was purified using the MEGAclear kit (Ambion). Transcribed RNA integrity was assessed by agarose gel electrophoresis.
(§3) Stage V and VI defolliculated Xenopus laevis oocytes were purchased from EcoCyte Bioscience (Dortmund, Germany) and kept in Kulori medium (90 mM NaCl, 4 mM KCl, 1 mM MgCl2, 1 mM CaCl2, and 5 mM Hepes, pH 7.4). Oocytes were micro-injected with 50 nl mRNA solution containing 30 ng RNA per oocyte and incubated at 19°C. Currents were measured after 2–5 days using a conventional two-electrode-voltage clamp (TEVC). The oocytes were placed in a 200 μl chamber and continuously exposed to a flow of Kulori medium with or without ligands (1 ml/min) while impaled with both a current and a voltage electrode filled with 3 M KCl and connected to an Oocyte Clamp Amplifier [Warner Instruments Corp. (OC-725 B) and a PC-interface (Digidata1440A, Molecular Devices)]. Current amplitude in absence or presence of ligands were analyzed using pClamp 10.2 software (Molecular Devices). All experiments were performed with oocyte membrane voltages constantly clamped to −70 mV and the temperature was kept between 19 and 22°C. In activation experiments, non-responding as well as low-responding (<10 nA) oocytes were excluded from the dataset. Ligands PACAP-38, PACAP-27, PACAP(6–38) were custom synthetized by Caslo (Lyngby, Denmark) while maxadilan was purchased from Bachem (Bubendorf, Switzerland).
as §1

[3] = test system: MrgB3-receptor (RGD1560730); assay: Two-electrode voltage clamp on MrgB3-receptor-expressing Xenopus laevis oocytes; format: cell-based, rat; details: for activation of MrgB3-receptor (result in words): 1–10 μM, holding potential −70 mV
Excerpt: as §2, §3, §1

un-injected oocytes = assay: Two-electrode voltage clamp on un-injected Xenopus laevis oocytes (control); format: cell-based; details: for delayed long-lasting response in un-injected oocytes: 10 μM; for currents in un-injected oocytes (result in words): same concentrations as in receptor-expressing oocytes (0.1–3 μM; maxadilan up to 10 μM), data not shown
Description: as §3

[4] = test system: calcitonin gene-related peptide (CGRP) release from the trigeminal nucleus caudalis; details: ref Jansen-Olesen et al., 2014; cited from earlier work
Excerpt: Future studies will have to rule out if MrgB3-receptors are involved in PACAP- ...

PAC1-receptor = details: presence of 21-amino acid domain in extracellular N-terminal domain (PAC1-full, short); ref Pantaloni et al., 1996; cited from earlier work
Excerpt: Pituitary adenylate cyclase-activating peptide-38 (PACAP-38) is a 38-amino acid neuropeptide located in both sensory and parasympathetic perivascular nerve fibers (Moller et al., [1993]; Mulder et al., [1994]). A C-terminal truncated 27-amino acid (PACAP-27) version is endogenously present as well but is less abundant (Miyata et al., [1990]; Arimura et al., [1991]; Ogi et al., [1993]). […] At present, three PACAP-receptors have been identified: PA ... || Several different splice variants of the PAC1-receptor have been identified in rats. Splice sites in the extracellular N-terminal domain and the third intracellular loop account for fine tuning of ligand affinity and signal transduction through adenylate cyclase or PLC activation (Deutsch and Sun, [1992]; Spengler et al., [1993]).

VPAC1-receptor = test system: VPAC1-receptor; parameters: method as in Harmar et al., 2012; details: PACAP-38, PACAP-27 and VIP compared; ref Harmar et al., 2012; cited from earlier work
VPAC2-receptor = test system: VPAC2-receptor; parameters: method as in Harmar et al., 2012; details: PACAP-38, PACAP-27 and VIP compared; ref Harmar et al., 2012; cited from earlier work
migraine patients = details: ref Schytz et al., 2009, cited from earlier work
Excerpt: Pituitary adenylate cyclase-activating peptide-38 (PACAP-38) is a 38-amino acid neuropeptide located in both sensory and parasympathetic perivascular nerve fibers (Moller et al., [1993]; Mulder et al., [1994]). A C-terminal truncated 27-amino acid (PACAP-27) version is endogenously present as well but is less abundant (Miyata et al., [1990]; Arimura et al., [1991]; Ogi et al., [1993]). […] Degranulation of mast cells can be induced either by an allergen-IgE-dependent mechanism or via an IgE-independent mechanism. The latter mechanism can be activated by a group of molecules known as basic secretagogues.

[5] = 10.0 μM, n = 6, **** p < 0.0001 for PACAP-38 (two-way ANOVA, Sidak's test)

Molecule	effect of inhibitor on PACAP-38-induced degranulation (result in words) [1]	degranulated meningeal mast cells in % of total number of mast cells (rat meningeal mast cells; 0.1 μM, n = 5)	degranulated meningeal mast cells in % of total number of mast cells (rat meningeal mast cells; 1.0 μM, n = 6)	degranulated meningeal mast cells in % of total number of mast cells (rat meningeal mast cells; [5])	mast cell degranulation (rat meningeal mast cells; 10 μM, 30 s)	mast cell degranulation (result in words) (rat meningeal mast cells; 30 s)	activation of PAC1-receptor / relative potency (result in words) [2]	activation of MrgB3-receptor (result in words) [3]	delayed long-lasting response in un-injected oocytes (un-injected oocytes)	currents in un-injected oocytes (result in words) (un-injected oocytes)	peritoneal mast cell degranulation (result in words) [1]	release of CGRP from the trigeminal nucleus caudalis (result in words) [4]	effect of 21-amino acid N-terminal domain of PAC1 on binding (result in words) (PAC1-receptor)	profile on VPAC1-receptor (result in words) (VPAC1-receptor)	profile on VPAC2-receptor (result in words) (VPAC2-receptor)	activation of PAC1-receptor / relative potency (result in words) ([2]; 0.01 to 1 μM, holding potential −70 mV)	current ([3]; up to 10 μM, −70 mV, Figure 4C, n = 9, mean ± SEM)	increase in mast cell degranulation (rat meningeal mast cells; 10 μM, 30 s, p < 0.0001)	migraine attacks / headache after infusion (result in words) (migraine patients; PACAP-38: 20-min intravenous infusion)	adverse events after infusion (result in words) (migraine patients; infusion, terminated by antihistamine treatment)
Nc1ncnc2c1ncn2C1CCCO1 (stereo not drawn) [SQ22536]	ineffective																			
COc1ccc2c(c1)CC[C@@H]1[C@@H]2CC[C@]2(C)[C@@H](NCCCCCCN3C(=O)C=CC3=O)CC[C@@H]12 [U-73122]	impaired																			
Pituitary Adenylate Cyclase Activating Peptide-27 [PACAP-27]		7.1 ± 3.2 % degranulation	16.9 ± 5.5 % degranulation	12.1 ± 3.8 % degranulation	12 ± 4%	did not induce mast cell degranulation that was significantly different from saline treatment; also recorded: unresponsive	equipotent; also recorded: significant increase in membrane current; also recorded: activates the PAC1-receptor with apparently equal potencies	not significantly different from baseline; also recorded: no change; also recorded: not PACAP-27 and maxadilan induces currents	not PACAP-27	Currents were not observed	not PACAP-27 and VIP, caused degranulation; also recorded: weak degranulating effect	neither VIP, PACAP-27 nor maxadilan, mediated the release	impairs PACAP-27 binding	equipotent	equipotent					
maxadilan					5 ± 2%	unresponsive		does not activate MrgB3-receptors; also recorded: no change; also recorded: not PACAP-27 and maxadilan induces currents		Currents were not observed	no effect on mast cell degranulation; also recorded: ineffective	neither VIP, PACAP-27 nor maxadilan, mediated the release				activates the PAC1-receptor with apparently equal potencies; also recorded: equipotent	−0.03 ± 0 μA			
pituitary adenylate cyclase activating peptide-38 [PACAP-38]		12.4 ± 3.8 % degranulation	17.9 ± 3.7 % degranulation	48.4 ± 6.2**** % degranulation		more potent mast cell degranulating agent than Pituitary Adenylate Cyclase Activating Peptide-27 (PACAP-27) in the meninges; also recorded: significant mast cell degranulation only was observed after stimulation with PACAP-38; also recorded: strong degranulation of meningeal mast cells	equipotent; also recorded: significant increase in membrane current; also recorded: activates the PAC1-receptor with apparently equal potencies	only PACAP-38 induces a significant change in current; also recorded: rapid concentration-depended inward current; also recorded: caused a change in current; also recorded: induces currents	15 out of 19	Currents were not observed	caused degranulation; also recorded: strong degranulation effect; also recorded: almost total mast cell degranulation within the first 10–20 s after application	mediated the release		equipotent	equipotent			eight-fold increase	provokes migraine attacks in migraine patients as well as headache in non-migraineurs	all participants in the clinical provocation studies experienced long-lasting flushing; also recorded: heat sensation and long-lasting flushing
